Data from patent publication US20260285850A1, “SUBSTITUTED OXAZOLIDINONES AND IMIDAZOLINONES AS HERBICIDES” (FMC CORPORATION, priority 2023, published 2026).

Key:
Type in all cases: in vivo
[1] = tested on: barnyardgrass (Echinochloa crus-galli); test: Test A preemergence soil spray, visual injury rating 0-100; details: 10 days
Procedure, shortened: (§1)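 Seeds sown in loam-sand blend got a preemergence directed soil spray, or emerged plants (2-10 cm, one- to two-leaf) got a postemergence spray, of compound in non-phytotoxic solvent with surfactant. After 10 days in greenhouse, injury rated visually versus untreated controls on a 0 (no effect) to 100 (complete control) scale.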

[2] = tested on: blackgrass (Alopecurus myosuroides); test: as above; details: 10 days
Procedure, shortened: as §1

corn (Zea mays) [3] = test: as above; details: 10 days
Procedure, shortened: as §1

[4] = tested on: green foxtail (Setaria viridis); test: as above; details: 10 days
Procedure, shortened: as §1

kochia (Bassia scoparia) [5] = test: as above; details: 62 g ai/ha, 10 days, 0 = no effect, 100 = complete control
Procedure, shortened: as §1

[6] = tested on: oat, wild (wild oat, Avena fatua); test: as above; details: 10 days
Procedure, shortened: as §1

[7] = tested on: palmer (palmer amaranth, palmer pigweed, Amaranthus palmeri); test: as above; details: 10 days
Procedure, shortened: as §1

[8] = tested on: ragweed (common ragweed, Ambrosia artemisiifolia); test: as above; details: 10 days
Procedure, shortened: as §1

[9] = tested on: ryegrass, Italian (italian ryegrass, Lolium multiflorum); test: as above; details: 10 days
Procedure, shortened: as §1

soybean (Glycine max) [10] = test: as above; details: 10 days
Procedure, shortened: as §1

[11] = tested on: wheat (Triticum aestivum); test: as above; details: 10 days
Procedure, shortened: as §1

[12] = tested on: barnyardgrass (Echinochloa crus-galli); test: Test A postemergence application, visual injury rating 0-100
Procedure, shortened: as §1

[13] = tested on: blackgrass (Alopecurus myosuroides); test: as above
Procedure, shortened: as §1

corn (Zea mays) [14] = test: as above
Procedure, shortened: as §1

[15] = tested on: galium (catchweed bedstraw, Galium aparine); test: as above
Procedure, shortened: as §1

[16] = tested on: green foxtail (Setaria viridis); test: as above
Procedure, shortened: as §1

[17] = tested on: horseweed (Erigeron canadensis); test: as above
Procedure, shortened: as §1

kochia (Bassia scoparia) [18] = test: as above
Procedure, shortened: as §1

[19] = tested on: oat, wild (wild oat, Avena fatua); test: as above
Procedure, shortened: as §1

[20] = tested on: palmer (palmer amaranth, palmer pigweed, Amaranthus palmeri); test: as above
Procedure, shortened: as §1

[21] = tested on: ragweed (common ragweed, Ambrosia artemisiifolia); test: as above
Procedure, shortened: as §1

[22] = tested on: ryegrass, Italian (italian ryegrass, Lolium multiflorum); test: as above
Procedure, shortened: as §1

soybean (Glycine max) [23] = test: as above
Procedure, shortened: as §1

[24] = tested on: wheat (Triticum aestivum); test: as above
Procedure, shortened: as §1

[25] = tested on: barnyardgrass (Echinochloa crusgalli); test: Test B flooded paddy test, visual plant response rating 0-100; details: 250 g ai/ha, Flood, applied to paddy water, evaluated after 13 days
Procedure, shortened: (§2)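 Each species was raised to two leaves before flooding to a 3 cm depth and dosing the water with compound. Injury was assessed by eye after 13 days under greenhouse conditions.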

[26] = tested on: ducksalad (Heteranthera limosa); test: as above; details: 250 g ai/ha, Flood, applied to paddy water, evaluated after 13 days
Procedure, shortened: as §2

rice (Oryza sativa) = test: as above; details: 250 g ai/ha, Flood, applied to paddy water, evaluated after 13 days
Procedure, shortened: as §2

[27] = tested on: sedge, umbrella (small-flower umbrella sedge, Cyperus difformis); test: as above; details: 250 g ai/ha, Flood, applied to paddy water, evaluated after 13 days
Procedure, shortened: as §2

[28] = 62 g ai/ha, 0 = no effect, 100 = complete control
[29] = 62 g ai/ha, postemergence, 10 days, 0 = no effect, 100 = complete control
[30] = Postemergence, 16 g ai/ha, greenhouse 10 days, 0 no effect, 100 complete control

SMILES: CC(C)COC(=O)C1=CCC(NC(=O)C2(C)CN(c3cc(Cl)cc(Cl)c3)C(=O)O2)C1 (stereo not drawn) [Compound 155]
- Barnyardgrass plant response rating ([1]; 16 g ai/ha, 0 to 100 scale): 0
- Barnyardgrass plant response rating (0-100) [1, 28]: 10
- Blackgrass plant response rating ([2]; 16 g ai/ha, 0 to 100 scale): 0
- Blackgrass plant response rating (0-100) [2, 28]: 0
- Corn plant response rating (corn (Zea mays) [3]; 16 g ai/ha, 0 to 100 scale): 0
- Corn plant response rating (0-100) (corn (Zea mays) [3]; [28]): 0
- Foxtail, Green plant response rating ([4]; 16 g ai/ha, 0 to 100 scale): 30
- Foxtail, Green plant response rating (0-100) [4, 28]: 30
- Kochia plant response rating (0-100) (kochia (Bassia scoparia) [5]): 20
- Oat, Wild plant response rating ([6]; 16 g ai/ha, 0 to 100 scale): 0
- Oat, Wild plant response rating (0-100) [6, 28]: 0
- Pigweed, Palmer plant response rating ([7]; 16 g ai/ha, 0 to 100 scale): 0
- Pigweed, Palmer plant response rating (0-100) [7, 28]: 0
- Ragweed plant response rating ([8]; 16 g ai/ha, 0 to 100 scale): 0
- Ragweed plant response rating (0-100) [8, 28]: 0
- Ryegrass, Italian plant response rating ([9]; 16 g ai/ha, 0 to 100 scale): 0
- Ryegrass, Italian plant response rating (0-100) [9, 28]: 0
- Soybean plant response rating (soybean (Glycine max) [10]; 16 g ai/ha, 0 to 100 scale): 0
- Soybean plant response rating (0-100) (soybean (Glycine max) [10]; [28]): 0
- Wheat plant response rating ([11]; 16 g ai/ha, 0 to 100 scale): 0
- Wheat plant response rating (0-100) [11, 28]: 10
- Barnyardgrass plant response rating (0-100) [12, 29]: 10
- Barnyardgrass plant response rating (0 to 100 scale) [12, 30]: 0
- Blackgrass plant response rating (0-100) [13, 29]: 0
- Blackgrass plant response rating (0 to 100 scale) [13, 30]: 0
- Corn plant response rating (0-100) (corn (Zea mays) [14]; [29]): 0
- Corn plant response rating (0 to 100 scale) (corn (Zea mays) [14]; [30]): 0
- Galium plant response rating (0-100) [15, 29]: 70
- Galium plant response rating (0 to 100 scale) [15, 30]: 0
- Foxtail, Green plant response rating (0-100) [16, 29]: 20
- Foxtail, Green plant response rating (0 to 100 scale) [16, 30]: 0
- Horseweed plant response rating (0-100) [17, 29]: 0
- Horseweed plant response rating (0 to 100 scale) [17, 30]: 0
- Kochia plant response rating (0-100) (kochia (Bassia scoparia) [18]; [29]): 40
- Kochia plant response rating (0 to 100 scale) (kochia (Bassia scoparia) [18]; [30]): 0
- Oat, Wild plant response rating (0-100) [19, 29]: 0
- Oat, Wild plant response rating (0 to 100 scale) [19, 30]: 0
- Pigweed, Palmer plant response rating (0-100) [20, 29]: 0
- Pigweed, Palmer plant response rating (0 to 100 scale) [20, 30]: 0
- Ragweed plant response rating (0-100) [21, 29]: 30
- Ragweed plant response rating (0 to 100 scale) [21, 30]: 0
- Ryegrass, Italian plant response rating (0-100) [22, 29]: 0
- Ryegrass, Italian plant response rating (0 to 100 scale) [22, 30]: 0
- Soybean plant response rating (0-100) (soybean (Glycine max) [23]; [29]): 20
- Soybean plant response rating (0 to 100 scale) (soybean (Glycine max) [23]; [30]): 0
- Wheat plant response rating (0-100) [24, 29]: 0
- Wheat plant response rating (0 to 100 scale) [24, 30]: 0
- Plant response rating, Barnyardgrass (0 to 100 scale, 0 is no effect and 100 is complete control) [25]: 0
- Plant response rating, Ducksalad (0 to 100 scale, 0 is no effect and 100 is complete control) [26]: 0
- Plant response rating, Rice (0 to 100 scale, 0 is no effect and 100 is complete control) (rice (Oryza sativa)): 0
- Plant response rating, Sedge, Umbrella (0 to 100 scale, 0 is no effect and 100 is complete control) [27]: 0
